Data taken from ChEMBL document CHEMBL4339210, “Synthesis and evaluation of histamine H3 receptor ligand based on lactam scaffold as agents for treating neuropathic pain” (Bioorg Med Chem Lett, 2019).
Activity calls are given as the source filed them. No cut-off for these calls is given here.

Experiments:
Rattus norvegicus [1] = assay: Anti-nociceptive activity in Sprague-Dawley rat assessed as reduction in total time spent licking injected paw during early phase (0 to 5 mins) at 1 mg/kg, po dosed 1 hr before formalin injection; type: functional, organism-based
Histamine H1 receptor = Histamine H1 receptor (Cavia porcellus, UniProt P31389); assay: Displacement of [3H]-mepyramine from histamine H1 receptor in guinea pig cerebellum homogenates incubated for 60 mins by Cheng and Prusoff equation analysis by scintillation counting analysis; type: tissue-based
Sequence of Histamine H1 receptor (P31389 whole entry): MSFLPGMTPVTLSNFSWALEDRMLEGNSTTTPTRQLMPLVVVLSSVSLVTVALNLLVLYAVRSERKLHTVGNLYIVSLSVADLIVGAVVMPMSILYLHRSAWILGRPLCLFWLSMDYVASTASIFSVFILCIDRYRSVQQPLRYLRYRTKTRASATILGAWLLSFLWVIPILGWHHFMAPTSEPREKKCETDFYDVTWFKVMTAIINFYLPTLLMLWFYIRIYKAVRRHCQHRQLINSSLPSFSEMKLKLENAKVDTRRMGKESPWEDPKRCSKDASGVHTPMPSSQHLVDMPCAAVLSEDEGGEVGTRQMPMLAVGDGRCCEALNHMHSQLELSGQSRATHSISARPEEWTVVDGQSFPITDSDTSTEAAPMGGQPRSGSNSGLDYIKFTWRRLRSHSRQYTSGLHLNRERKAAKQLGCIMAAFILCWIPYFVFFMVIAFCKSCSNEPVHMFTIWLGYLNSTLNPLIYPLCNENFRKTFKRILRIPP

Rattus norvegicus [2] = assay: Anti-nociceptive activity in Sprague-Dawley rat assessed as reduction in total time spent licking injected paw during delayed phase (15 to 45 mins) at 1 mg/kg, po dosed 1 hr before formalin injection; type: functional, organism-based
Histamine H3 receptor = Histamine H3 receptor (Rattus norvegicus, UniProt Q9QYN8); assay: Displacement of [3H]-N-alpha-methylhistamine from histamine H3 receptor in rat cerebral cortex homogenates incubated for 60 mins by Cheng and Prusoff equation analysis by scintillation counting analysis
Sequence of Histamine H3 receptor (Q9QYN8 whole entry): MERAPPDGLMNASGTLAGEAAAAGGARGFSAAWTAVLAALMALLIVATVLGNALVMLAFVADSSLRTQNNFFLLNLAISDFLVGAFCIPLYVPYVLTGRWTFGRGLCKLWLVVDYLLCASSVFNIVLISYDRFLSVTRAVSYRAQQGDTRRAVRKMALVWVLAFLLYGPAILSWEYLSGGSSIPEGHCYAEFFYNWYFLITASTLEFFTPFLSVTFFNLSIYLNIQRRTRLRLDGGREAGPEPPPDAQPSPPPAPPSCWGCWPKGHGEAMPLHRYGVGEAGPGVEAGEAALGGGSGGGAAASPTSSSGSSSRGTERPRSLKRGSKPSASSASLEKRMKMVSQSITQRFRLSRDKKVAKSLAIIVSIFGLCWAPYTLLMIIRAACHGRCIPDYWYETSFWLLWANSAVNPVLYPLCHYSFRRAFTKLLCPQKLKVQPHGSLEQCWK

Rattus norvegicus [3] = assay: Anti-nociceptive activity in Sprague-Dawley rat assessed as reduction in total time spent licking injected paw during early phase (0 to 5 mins) at 1 to 10 mg/kg, po dosed 1 hr before formalin injection; type: functional
Rattus norvegicus [4] = assay: Anti-nociceptive activity in Sprague-Dawley rat assessed as reduction in total time spent licking injected paw during delayed phase (15 to 45 mins) at 1 to 10 mg/kg, po dosed 1 hr before formalin injection; type: functional
[5] = Acute toxicity in KM mouse assessed as effect on survival at 50 to 1000 mg/kg, po after 24 hrs; type: organism-based; conditions: in vivo
Rattus norvegicus [6] = assay: Anti-nociceptive activity in Sprague-Dawley rat assessed as reduction in total time spent licking injected paw during delayed phase (15 to 45 mins) at 40 mg/kg, po dosed 1 hr before formalin injection; type: functional, organism-based
Rattus norvegicus [7] = assay: Anti-nociceptive activity in Sprague-Dawley rat assessed as reduction in total time spent licking injected paw during early phase (0 to 5 mins) at 40 mg/kg, po dosed 1 hr before formalin injection; type: functional, organism-based

Structure (SMILES) | Ki (Histamine H1 receptor) | Ki (Histamine H3 receptor) | other results
NC(=O)c1ccc(OCCCN2C[C@H]3CCC[C@H]3C2)cc1 | 0.0036 µM | 0.426 µM | Activity (Rattus norvegicus [1]): Active; Activity (Rattus norvegicus [2]): Active
CC1CCCCN1CCCOc1ccc2c(c1)C(=O)N(C)CC2 (stereo not drawn) | 0.165 µM | – | –
CCN1CCc2ccc(OCCCN3CCOCC3)cc2C1=O | 0.252 µM | – | –
CN1CCc2ccc(OCCCN3CCC(O)CC3)cc2C1=O | 0.035 µM | 0.908 µM | –
CN1CCc2ccc(OCCCN3CCC(O)C3)cc2C1=O (stereo not drawn) | 0.112 µM | – | –
CN1CCc2ccc(OCCCN3CCOCC3)cc2C1=O | 0.0065 µM | 1.03 µM | Activity (Rattus norvegicus [3]): Dose-dependent effect; ED50 (Rattus norvegicus [3]): 1.3 mg/kg; Activity (Rattus norvegicus [4]): Dose-dependent effect; ED50 (Rattus norvegicus [4]): 2.4 mg/kg; LD50 at 24 h [5]: > 1000 mg/kg
CCN1CCN(CCCOc2ccc3c(c2)C(=O)N(C)CC3)CC1 | 1.1 µM | – | –
CN1CCc2ccc(OCCCCN3CCOCC3)cc2C1=O | 0.856 µM | – | –
CN1CCc2ccc(OCCCN3CCCC3)cc2C1=O | 0.039 µM | 0.169 µM | –
CN1CCc2ccc(OCCN3CCOCC3)cc2C1=O | 1.21 µM | – | –
CN1CCc2ccc(OCCCN3CCCCC3)cc2C1=O | 0.023 µM | 0.189 µM | –
CN1CCN(CCCOc2ccc3c(c2)C(=O)N(C)CC3)CC1 | 0.706 µM | – | –
CN1CCc2ccc(OCCCN3CCC(=O)CC3)cc2C1=O | 0.176 µM | – | –
CC(C)C[C@H](CN)CC(=O)O | – | – | Activity (Rattus norvegicus [6]): Active; Activity (Rattus norvegicus [7]): Active
CCN(CC)CCCOc1ccc2c(c1)C(=O)N(C)CC2 | 0.542 µM | – | –
CC1CCCN1CCCOc1ccc2c(c1)C(=O)N(C)CC2 (stereo not drawn) | 0.026 µM | 0.068 µM | –
CC1CCN(CCCOc2ccc3c(c2)C(=O)N(C)CC3)CC1 | 0.032 µM | 0.279 µM | –
CN1CCc2ccc(OCC(O)CN3CCOCC3)cc2C1=O (stereo not drawn) | > 2 µM | – | –
